The nature of data set [1]: Particle size by light diffraction (Sympatec HELOS, dry powder dispersion). The class given is physicochemical. The procedure: Dispersion was performed on a sample of Form A of 3-fluoro-7-(2,2,2-trifluoroethoxy)phenoxathiin-10,10-dioxide produced accordance with the method presented in Example 4. Dispersion pressure of 0.5 to 2.0 bar was used to disperse the sample particles. Samples were analyzed by microscopy prior to particle size analysis to assess aggregation and estimate particle size, and without fracturing primary particles or causing aggregation. […] Particle size was measured using a Sympatec HELOS equipped with VIERI dry powder feeder unit, and sample measurements for optimization of jet pressure and repeatability were performed according to USP<429>, Method Validation Protocol ANC00756, and TM-1509 Rev.00 (draft).

Data set [2] in a line: Dissolution temperature in 10% (v/v) water in acetic acid. To be noted: ratio (w/v) of compound to solvent about 1.6 g: 10 mL. The class given is physicochemical.

Molecules are shown by their SMILES.

As to `O=S1(=O)c2ccc(F)cc2Oc2cc(OCC(F)(F)F)ccc21` [Form A, 3-fluoro-7-(2,2,2-trifluoroethoxy)phenoxathiin-10,10-dioxide], the x10 is 3.05 μm in data set [1] (Dispersion Pressure 0.5 bar), 2.54 μm in data set [1] (Dispersion Pressure 1 bar), 2.21 μm in data set [1] (Dispersion Pressure 1.5 bar) and 1.94 μm in data set [1] (Dispersion Pressure 2 bar). Besides, the x50 is on record as 9.07 μm in data set [1] (Dispersion Pressure 0.5 bar), 7.96 μm in data set [1] (Dispersion Pressure 1 bar), 7.35 μm in data set [1] (Dispersion Pressure 1.5 bar) and 6.88 μm in data set [1] (Dispersion Pressure 2 bar). In addition, the x90 amounted to 24.49 μm in data set [1] (Dispersion Pressure 0.5 bar), 19.32 μm in data set [1] (Dispersion Pressure 1 bar), 17.1 μm in data set [1] (Dispersion Pressure 1.5 bar) and 15.32 μm in data set [1] (Dispersion Pressure 2 bar). Moreover, the “temperature at which the form dissolves” value in data set [2] is 75-85 °C.

The values above are taken from patent US7812050B2, “Polymorphic form of fluoro-7-(2,2,2-trifluoroethoxy) phenoxathiin-10,10-dioxide” (CeNeRx BioPharma, Inc., priority 2006, dated 2010).
